This assay can be described thus: Inhibition of AChE assessed as minimum drug level causing white zone of enzyme inhibition by TLC bioautography.

In brackets after ≈: the same amount, converted by molar mass.

With `COC1=C(C)C(=O)O/C1=C1\O[C@@]23OC4CC(C2[C@H]1C)N1CCC3[C@]41/C=C/[C@@H](C)O` (some centres not stated), the MIC was determined as 1.25 nM (≈ 0.501 ng/mL).

Turning to `CCCCC12C3CC4C5[C@@H](C)[C@](O)([C@]6(O)OC(=O)C(C)=C6OC)O[C@]5(O3)C1CCN42` (some centres not stated), the MIC turned out to be 1.19 nM (≈ 0.501 ng/mL).

Source of the values: ChEMBL document CHEMBL1155467, “Semisynthesis and acetylcholinesterase inhibitory activity of stemofoline alkaloids and analogues” (J Nat Prod, 2010).
